The record followed here is patent US6413537B1, “Nystatin formulation having reduced toxicity” (Wisconsin Alumni Research Foundation, priority 2000, dated 2002).

Values after ≈ are worked out from the molar mass of the structure shown. Read-outs that look alike come from different tables or passages of the source.

Data set [1] in a line: Solubility measurement of freeze-dried nystatin formulations (NF) in distilled water. Type of data set: physicochemical. As to conditions: vortex mixed 5 min, 0.45 μm filtered, absorption at 307 nm. On the procedure: An excess amount of each NF formulation from Example 1 was placed into 0.5 mL of distilled water, and mixed vigorously for 5 min with a vortex mixer. After filtering the slurry with a 0.45 μm syringe filter, the filtrate was diluted with dimethylformamide (DMF) for analysis. The amount of nystatin in each NF composition was calculated by absorption spectroscopy at 307 nm.

Data set [2] deals with Saccharomyces cerevisiae. Briefly: Minimal fungicidal concentration (MFC). As to conditions: 2 hrs contact at 37° C., no colony on YPD agar plate after 24 hr at 30° C. Type of data set: cell-based. The protocol: For measurement of minimal fungicidal concentration (MFC), the same procedure as the MIC measurement was employed up to the incubation step. Tubes containing Saccharomyces cerevisiae were placed in an incubator at 37° C. for 2 hrs., so that the cells might be killed. After 2 hrs. contact with the sample, the surviving cells were precipitated on the bottom of the tube by centrifugation (12000 g, 20 sec), and the supernatant decanted. […] All experiments were repeated three times. The MFC for the compositions in accordance with the present invention was determined to be 3 μg/mL.

In data set [3] the test system is Saccharomyces cerevisiae, ATCC 4921. Briefly: Minimal inhibitory concentration (MIC) in YPD broth. Type of data set: cell-based. To be noted: 30° C., 24 hr, full inhibition by optical density at 600 nm. On the procedure:
NF samples were dissolved into DMSO and diluted with Bacto® YPD broth medium (10 g of Bacto® YPD in 200 mL of distilled water, and sterilized at 121° C.-124° C.), to give a nystatin level of 8 μg/mL. Nystatin levels were varied by serial dilution with broth medium to a level of 0.1 μg/mL. An aliquot (800 μL) of each nystatin sample was put into a microcentrifuge tube. 50 μL of the inoculum, containing 5×10^3 cfu/mL of Saccharomyces cerevisiae, ATCC 4921, in sterile distilled water, was added to each tube to give a total volume of 850 μL per tube. The tubes were incubated at 30° C. for 24 hr. A solvent control, Pluronic F127® control, and medium control were performed simultaneously to check the growth inhibiting activities of DMSO and Pluronic F127® as well as the sterility of the broth medium. […] The MIC for the nystatin formulations in accordance with the present invention was determined to be 3 μg/mL. The MIC of nystatin alone for Saccharomyces cerevisiae is about 3 μg/mL.

For data set [4], the system named is erythrocytes (red blood cells).
Data set [5] in a line: Critical aggregation concentration (CAC) of nystatin by light scattering. Type of data set: physicochemical. On the procedure: Nystatin (16 mg) was dissolved into 0.3 mL of dimethylsulfoxide (DMSO) under light protection, and was added into 15 mL of various aqueous Pluronic F127® solutions ranging from 0.1%-2.0%, making a 1100 μM nystatin solution. Each solution was serially diluted with the corresponding Pluronic F127® solution until a 3.8 μM nystatin concentration was obtained. After incubation at 37° C. for 30 min, each solution was subjected to light scattering using fluorimeter with fixed excitation wavelength of 450 nm. Band widths for excitation and emission were set at 3 nm and 1.5 nm, respectively. […] The intersection point of two linear lines was defined as the critical aggregation concentration (CAC) where self-aggregation of nystatin molecules begins, leading to an abrupt increase of intensity of scattered light.

The nature of data set [6]: Monomerizing (light scattering) effect of various surfactants on nystatin. Type of data set: physicochemical. To be noted: nystatin kept constant at 200 μM; FIG. 7. On the procedure: Nystatin formulations were prepared with various surfactants similar to the method of Example 1. The concentration of drug was kept constant at 200 μM. The intensity of the scattered light was measured using a fluorimeter with a fixed excitation wavelength of […].

What is called Solubility is the dissolved amount per volume that the medium holds. Read a low Solubility as little dissolved substance. Turning to `C[C@@H]1[C@H](O)[C@@H](C)/C=C/C=C/CC/C=C/C=C/C=C/C=C/C(O[C@H]2O[C@H](C)[C@@H](O)[C@H](N)[C@@H]2O)CC2O[C@](O)(CC(O)C(O)CCC(O)CC(O)CC(O)CC(=O)O[C@H]1C)CC(O)C2C(=O)O` (stereo partly shown) [pure Nys, Nystatin], the Solubility in data set [1] turned out to be 540 µg/mL (≈ 583 µM); in data set [1] (listed as pure nystatin), 500 µg/mL (≈ 540 µM). The “minimal fungicidal concentration (MFC)” value in data set [2] turned out to be 12 µg/mL (≈ 13 µM). Also, the “minimal inhibitory concentration (MIC)” value in data set [3] was “about 3 μg/mL”. Further, the “concentration of nystatin causing 50% hemolysis” value is roughly 120 µg/mL in data set [4] (PBS pH 7.0 containing 0.1% Pluronic F127, FIG. 4); roughly 270 µg/mL in data set [4] (PBS pH 7.0 containing 2% Pluronic F127, FIG. 4); “about 55 μg/mL” in data set [4] (isotonic PBS, FIG. 3). Further, the “50% hemolysis inducing level of Nys” value in data set [4] (Table 1, erythrocytes in isotonic PBS, 37° C., 30 min) was 60 µg/mL. The CAC in data set [5] (distilled water alone) came out at 52.8 µM; in data set [5] (distilled water containing 0.1% Pluronic F127, 37° C. 30 min) it was 50.1 µM; in data set [5] (distilled water containing 0.5% Pluronic F127, 37° C. 30 min), 108.0 µM; in data set [5] (distilled water containing 1.0% Pluronic F127, 37° C. 30 min), 134.2 µM; in data set [5] (distilled water containing 1.5% Pluronic F127, 37° C. 30 min) it was 154.3 µM; in data set [5] (distilled water containing 2.0% Pluronic F127, 37° C. 30 min), 217.9 µM.
As to “sorbitan mono-9-octadecanoate [Tween 80®]”, the “surfactant level showing deaggregating activity (decrease of light scattering intensity)” value in data set [6] is “about 100 μM”. Moreover, the “concentration of surfactant alone causing 50% hemolysis” value in data set [4] is “less than 50 μg/mL”.
